{"source": "patent US20240342126A1", "about": "“HALLUCINOGEN-FATTY ACID COMBINATION” (Mindset Pharma Inc., priority 2021, published 2024)", "key": {"[1]": {"assay": "Pharmacokinetics in plasma and CSF after i.n. or s.c. administration of 5-MeO-DMT formulations", "settings": "Sprague-Dawley, rat, plasma, iv, 1 mg/kg"}, "human 5-HT2A": {"molecular_target": "human 5-HT2A (Homo sapiens, UniProt P28223)", "sequence (P28223 whole entry)": "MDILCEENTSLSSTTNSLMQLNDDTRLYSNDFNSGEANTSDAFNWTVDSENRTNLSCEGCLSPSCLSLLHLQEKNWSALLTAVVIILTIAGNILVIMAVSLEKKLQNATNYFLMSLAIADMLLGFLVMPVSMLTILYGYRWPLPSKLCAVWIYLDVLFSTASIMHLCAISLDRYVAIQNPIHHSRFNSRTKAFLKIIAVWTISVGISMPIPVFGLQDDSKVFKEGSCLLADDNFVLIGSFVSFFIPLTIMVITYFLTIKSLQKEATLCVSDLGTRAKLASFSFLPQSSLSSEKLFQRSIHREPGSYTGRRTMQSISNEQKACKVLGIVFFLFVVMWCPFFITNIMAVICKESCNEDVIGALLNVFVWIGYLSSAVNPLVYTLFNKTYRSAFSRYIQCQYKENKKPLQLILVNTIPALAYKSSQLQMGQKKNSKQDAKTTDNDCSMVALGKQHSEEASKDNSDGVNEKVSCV", "settings": "read-out: binding affinity 5-HT2A; cited from earlier work"}, "C57BL/6J mice": {"tested_on": "C57BL/6J mice", "assay": "Mouse head twitch experiments", "type": "in vivo", "settings": "for effect on test compound-induced head twitches: M100907 0.5 mg/kg IP pretreatment; for head twitch response of combination with linoleic acid vs test compound alone: equimolar dose of linoleic acid, SC", "procedure": "Male, C57BL/6J mice (body weight range 20-30 g) were dosed with the appropriate dose(s) of test compound, or combination of test compounds, and following pre-treatment, the animals were placed in individual observation chambers. Animals were visually assessed for the incidence head twitches continuously over a 1 hr period. Head twitches were defined as a rapid jerk of the head which was not elicited by an external tactile stimulus (Corne S J, Pickering R W (1967) Psychopharmacologia 11 (1): 65-78). Each head twitch was individually counted by a trained observer, and the data expressed as the mean±SEM of 4-10 mice per group. In addition to the total number of head twitches recorded over the 1 hr observation period, head twitches were also scored according to each specific 10 min time bin within the 1 hr observation period (i.e. 0-10 min, 10-20 min, 20-30 min, etc).\nTwo types of experiments were conducted. In one, the effect of linoleic acid in combination with a test compound (psilocybin or 1-4) was studied. In these experiments, both test compounds, or saline control was injected subcutaneously (SC) 1 min prior to testing. […] In these experiments, M100907 (0.5 mg/kg IP) was injected 30 min prior to a single dose of test compound (i.e. psilocybin or I-4). […] 1 min following SC administration of the test compound, the mice were placed in the observation chambers for measurement of head twitch response."}}, "note": "“Also recorded” adds a separate entry of the source."}
{"compound": "COc1ccc2[nH]cc(CCN(C)C)c2c1", "note": "[Compound 5-MeO-DMT, 5-methoxy-N,N-dimethyltryptamine]", "values": [{"measurement": "AUC(0-inf)", "setting": "[1]", "result": 35.3, "unit": "ng·h/mL"}]}
{"compound": "CN(C)CCc1c[nH]c2ccccc12", "note": "[DMT, N,N-dimethyltryptamine]", "values": [{"measurement": "Ki", "setting": "human 5-HT2A", "result": 0.237, "unit": "µM"}]}
{"compound": "COc1cccc([C@H](O)C2CCN(CCc3ccc(F)cc3)CC2)c1OC", "note": "[Compound M100907, reference compound]", "values": [{"measurement": "effect on test compound-induced head twitches", "setting": "C57BL/6J mice; head twitches induced by I-4 6.2 mg/kg SC", "result": "completely blocked"}, {"measurement": "effect on test compound-induced head twitches", "setting": "C57BL/6J mice; head twitches induced by psilocybin 3 mg/kg SC", "result": "completely blocked"}]}
{"compound": "[2H]C([2H])([2H])N(C([2H])([2H])[2H])C([2H])([2H])C([2H])([2H])c1c[nH]c2cccc(O)c12", "note": "[Compound I-4, 3-(2-(bis(methyl-d3)amino)ethyl-1,1,2,2-d4)-1H-indol-4-ol]", "values": [{"measurement": "head twitches over 1 hr (mean±SEM)", "setting": "C57BL/6J mice; 0.3 mg/kg SC + linoleic acid at […] SC", "result": "7.8±0.6"}, {"measurement": "head twitches over 1 hr (mean±SEM)", "setting": "C57BL/6J mice; 0.3 mg/kg SC + vehicle", "result": "3.3±0.8"}, {"measurement": "head twitch response of combination with linoleic acid vs test compound alone", "setting": "C57BL/6J mice", "result": "more head twitches"}, {"measurement": "head twitch response of combination with linoleic acid vs test compound alone", "setting": "C57BL/6J mice; listed as 1-4", "result": "greater head twitch response"}]}
{"compound": "CCCCC/C=C\\C/C=C\\CCCCCCCC(=O)O", "note": "[linoleic acid]", "values": [{"measurement": "head twitches over 1 hr (mean±SEM)", "setting": "C57BL/6J mice; linoleic acid alone 10 mg/kg SC", "result": "1.0±0.7"}, {"measurement": "head twitches relative to vehicle", "setting": "C57BL/6J mice; linoleic acid alone 0.1-10 mg/kg SC", "result": "did not induce head twitches to a significant degree; also recorded: no significant effect"}]}
